Results reported in ChEMBL document CHEMBL4422639, “Novel 2, 8-bit derivatives of quinolines attenuate Pseudomonas aeruginosa virulence and biofilm formation” (Bioorg Med Chem Lett, 2019).
Active and inactive are the calls of the source. The rule behind the calls is not given here.

Columns and labels:
Pseudomonas aeruginosa [1] = experiment: Antibiofilm activity against Pseudomonas aeruginosa PAO1 at 10 uM after 18 hrs by crystal violet staining-based assay; format: functional, organism-based
Pseudomonas aeruginosa [2] = experiment: Antibacterial activity against Pseudomonas aeruginosa PAO1 by standard optical density assay; format: functional, organism-based
[3] = target: 3-(3-hydroxydecanoyloxy)decanoate synthase (Pseudomonas aeruginosa (strain ATCC 15692 / PAO1 / 1C / PRS 101 / LMG12228)) (UniProt Q51559); experiment: Inhibition of rhlA in Pseudomonas aeruginosa PAO1 assessed as decrease in rhamnolipid production at 10 uM after 16 hrs by standard optical density assay
[4] = system: Pseudomonas aeruginosa PAO1; experiment: Inhibition of PQS in Pseudomonas aeruginosa PAO1 assessed as decrease in pyocyanin production at 10 uM after 16 hrs by standard optical density assay
[5] = target: T1, Anthranilate--CoA ligase (Pseudomonas aeruginosa (strain ATCC 15692 / DSM 22644 / CIP 104116 /JCM 14847 / LMG 12228 / 1C / PRS 101 / PAO1)) (UniProt Q9I4X3); experiment: Inhibition of pqsA in Pseudomonas aeruginosa PAO1 containing […] translational reporter fusion at 20 uM after 16 hrs by LacZ reporter gene assay
T1 sequence (whole entry): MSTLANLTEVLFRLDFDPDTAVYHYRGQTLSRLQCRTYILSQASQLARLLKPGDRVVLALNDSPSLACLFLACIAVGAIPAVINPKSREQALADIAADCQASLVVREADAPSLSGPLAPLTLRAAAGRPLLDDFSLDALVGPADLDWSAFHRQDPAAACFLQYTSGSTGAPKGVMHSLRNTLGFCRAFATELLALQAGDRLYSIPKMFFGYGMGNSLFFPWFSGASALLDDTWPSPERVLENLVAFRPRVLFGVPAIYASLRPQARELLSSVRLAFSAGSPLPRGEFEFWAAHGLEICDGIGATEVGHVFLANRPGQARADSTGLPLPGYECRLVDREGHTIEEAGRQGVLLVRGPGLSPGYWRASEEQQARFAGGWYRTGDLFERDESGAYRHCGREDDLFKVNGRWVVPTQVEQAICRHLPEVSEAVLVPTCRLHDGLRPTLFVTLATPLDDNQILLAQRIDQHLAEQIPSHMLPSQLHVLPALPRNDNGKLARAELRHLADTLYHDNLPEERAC

[6] = target: 3-(3-hydroxydecanoyloxy)decanoate synthase (Pseudomonas aeruginosa (strain ATCC 15692 / PAO1 / 1C / PRS 101 / LMG12228)) (UniProt Q51559); experiment: Inhibition of rhlA in Pseudomonas aeruginosa PAO1 containing […] translational reporter fusion at 20 uM after 16 hrs by LacZ reporter gene assay
[7] = system: Pseudomonas aeruginosa PAO1; experiment: Inhibition of quorum sensing protein iqs in Pseudomonas aeruginosa PAO1 in phosphate limited medium assessed as reduction in biofilm formation at 10 uM after 18 hrs by crystal violet staining-based assay
[8] = target: Elastase (Pseudomonas aeruginosa (strain ATCC 15692 / PAO1 / 1C / PRS 101 / LMG12228)) (UniProt P14756); experiment: Inhibition of lasB in Pseudomonas aeruginosa PAO1 containing lasB-lacZ translational reporter fusion at 20 uM after 16 hrs by LacZ reporter gene assay
Elastase (Pseudomonas aeruginosa (strain ATCC 15692 / PAO1 / 1C / PRS 101 / LMG12228)), sequence (P14756 198-498 limits assumed): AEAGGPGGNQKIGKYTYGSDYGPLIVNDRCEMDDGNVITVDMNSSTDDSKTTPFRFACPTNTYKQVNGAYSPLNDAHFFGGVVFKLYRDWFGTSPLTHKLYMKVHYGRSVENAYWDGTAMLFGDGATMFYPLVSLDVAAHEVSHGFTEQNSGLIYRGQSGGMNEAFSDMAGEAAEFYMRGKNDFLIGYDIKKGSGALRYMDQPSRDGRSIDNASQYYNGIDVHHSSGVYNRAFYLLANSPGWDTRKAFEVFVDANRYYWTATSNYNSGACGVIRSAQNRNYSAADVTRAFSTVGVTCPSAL

| Structure (SMILES) | Activity (Pseudomonas aeruginosa [1]) | MIC (Pseudomonas aeruginosa [2]) [µM] | also measured |
| --- | --- | --- | --- |
| O=C(Oc1cccc2ccc(-c3ccc(C(F)(F)F)cc3)nc12)c1ccc(Cl)cc1 | Active | > 256 | – |
| O=C(Oc1cccc2ccc(-c3cccc(C(F)(F)F)c3)nc12)c1ccc(Cl)cc1 | Active | > 256 | – |
| CCCCCCC(=O)Oc1cccc2ccc(-c3ccc(F)cc3)nc12 | – | > 256 | – |
| CCCCCC(=O)Oc1cccc2ccc(-c3cccc(C(F)(F)F)c3)nc12 | Active | > 256 | – |
| O=C(Oc1cccc2ccc(-c3ccc(C(F)(F)F)cc3)nc12)c1ccco1 | Active | > 256 | – |
| Oc1cccc2ccc(-c3ccc(C(F)(F)F)cc3)nc12 | Active | > 256 | – |
| CC(=O)Oc1cccc2ccc(-c3ccc(C(F)(F)F)cc3)nc12 | Active | > 256 | – |
| COc1ccc(C(=O)Oc2cccc3ccc(-c4ccc(C(F)(F)F)cc4)nc23)cc1 | Active | > 256 | – |
| O=C(Oc1cccc2ccc(-c3cccc(C(F)(F)F)c3)nc12)c1ccco1 | Active | > 256 | – |
| Cc1ccc(C(=O)Oc2cccc3ccc(-c4cccc(C(F)(F)F)c4)nc23)cc1 | Active | > 256 | – |
| CCC(=O)Oc1cccc2ccc(-c3ccc(C(F)(F)F)cc3)nc12 | Active | > 256 | – |
| Cc1ccc(C(=O)Oc2cccc3ccc(-c4ccc(C(F)(F)F)cc4)nc23)cc1 | Active | > 256 | – |
| CCCCCCC(=O)Oc1cccc2ccc(-c3ccc(C(F)(F)F)cc3)nc12 | Active | > 256 | inhibition [3]: Active; inhibition [4]: inactive; inhibition [5]: inactive; inhibition [6]: Active; inhibition [7]: inactive; inhibition [8]: inactive |
| CCCCCCC(=O)Oc1cccc2ccc(-c3cc(C(F)(F)F)cc(C(F)(F)F)c3)nc12 | – | > 256 | – |
| COc1ccc(C(=O)Oc2cccc3ccc(-c4cccc(C(F)(F)F)c4)nc23)cc1 | Active | > 256 | inhibition [3]: Active; inhibition [4]: inactive; inhibition [5]: inactive; inhibition [6]: Active; inhibition [7]: inactive; inhibition [8]: inactive |
| O=C(Oc1cccc2ccc(-c3cccc(C(F)(F)F)c3)nc12)c1ccccc1 | Active | > 256 | – |
| CCCCCC(=O)Oc1cccc2ccc(-c3ccc(C(F)(F)F)cc3)nc12 | Active | > 256 | – |
| CCCCC(=O)Oc1cccc2ccc(-c3ccc(C(F)(F)F)cc3)nc12 | Active | > 256 | – |
| CCCC(=O)Oc1cccc2ccc(-c3ccc(C(F)(F)F)cc3)nc12 | Active | > 256 | – |
| O=C(Oc1cccc2ccc(-c3ccc(C(F)(F)F)cc3)nc12)c1ccccc1 | Active | > 256 | – |
| CCCCCCC(=O)Oc1cccc2ccc(-c3cccc(C(F)(F)F)c3)nc12 | Active | > 256 | – |
